The text below walks through data of patent US9512139B2, “Conformationally constrained, fully synthetic macrocyclic compounds” (POLYPHOR AG, priority 2009, dated 2016).

The nature of data set [1]: in vitro. Type of data set: in vitro ADME, mouse. Conditions: both, CD-1, mouse, plasma, 10 µM; for Plasma Stability 240 min mouse [% remain.]: 4 h.
Data set [2] can be described thus: in vitro. Type of data set: in vitro ADME, human. Particulars: human, plasma, 10 µM; for Plasma Stability 240 min hum [% remain.]: 4 h.
The nature of data set [3]: Metabolic stability assay, human microsomes. Type of data set: in vitro ADME. Conditions: human, microsomes; for half-life at 10 µM: both sexes; for Metabolic Stability 60 min hum [% remain.] / Metabolic Stability T½ [min] hum: both, 10 µM; for Metabolic Stability 60 min hum [% remain.]: 1 h. The protocol:
(§1) 4. Plasma and Metabolic Stability Assays
(§2) The assays were conducted according to literature precedents (F. P. Guengerich, Analysis and Characterization of Enzymes; in: Principles and Methods of Toxicology; A. W. Hayes (Ed.) Raven Press: New York, 1989, 777-813; R. Singh et al., In vitro metabolism of a potent HIV-protease inhibitor (141W94) using rat, monkey and human liver S9, Rapid Commun. Mass Spectrom. 1996, 10, 1019-1026).
(§3) Metabolic Stability Assay
(§4) Microsomes from a human 50 donor mixed gender pool and 1:1 mixtures of microsomes from CD-1 mouse single-gender pools are purchased from Celsis (Belgium). The enzymatic reaction is performed in a buffer containing an NADPH regeneration system and microsomes with the following end concentrations: 100 mM potassium phosphate buffer (all from Sigma), 1 mg/mL glucose-6-phosphate, 1 mg/mL β-nicotinamide adenine dinucleotide phosphate (NADP), 0.65 mg/mL magnesium chloride, 0.8 units/mL of glucose-6-phosphate dehydrogenase (prediluted with 5 mM citrate buffer), 10 μM compound and 1 mg/ml microsomal protein. Compounds are incubated at 37° C. in duplicates and samples are taken after 0, 20 and 60 minutes. After acetonitrile precipitation (2 volumes) and HPLC/MS/MS analysis metabolic turnover is expressed in % of the initial 0 minutes value and half life T½ (min) is calculated. Verapamil for human and propranolol for mouse are used as reference and are assayed with every experimental set.

Data set [4] is described as follows: Metabolic stability assay, CD-1 mouse microsomes. Type of data set: in vitro ADME. Conditions: CD-1, mouse, microsomes; for half-life at 10 µM: both sexes; for Metabolic Stability 60 min mouse [% remain.] / Metabolic Stability T½ [min] mouse: both, 10 µM; for Metabolic Stability 60 min mouse [% remain.]: 1 h. The protocol:
as §1, §2, §3, §4
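Wherever Plasma Stability 240 min mouse [% remain.] is given: sodium citrate stabilized mouse plasma, parent compound quantified by HPLC/MS/MS relative to its peak area at time zero, run in triplicate.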
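Wherever Plasma Stability T½ [min] mouse is given: sodium citrate stabilized mouse plasma, parent compound quantified by HPLC/MS/MS relative to its peak area at time zero, run in triplicate.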

In general, half-life refers to the time in which the quantity being followed falls by half. Low readings indicate fast loss, high ones slow loss. `CCCCC(=O)N[C@H]1C[C@H]2COc3ccc(F)cc3C(=O)N(C)[C@@H](C(=O)NCc3ccc4ccccc4c3)CCC(=O)N(C)CC(=O)N2C1` [Ex. 103, (2S,11R,19aS)-15-fluoro-7,12-dimethyl-N-(2-naphthylmethyl)-5,8,13-trioxo-2-(pentanoylamino)-2,3,6,7,8,9, 10,11,12,13,19,19a-dodecahydro-1H,5H-pyrrolo[2,1-c][1,4,7,12] benzoxatriazacyclopentadecine-11-carboxamide]: in the data set “in vitro [1]”, the “Plasma Stability 240 min mouse [% remain.]” value was determined as 75 % remain. Besides, the “Plasma Stability 240 min hum [% remain.]” value in “in vitro [2]” is 97 % remain. For the same compound, in data set [3], the half-life at 10 µM was found to be 0.583 h and the “Metabolic Stability 60 min hum [% remain.]” value was found to be 22 % remain. In addition, in data set [4], the half-life at 10 µM came to 0.6 h and the “Metabolic Stability 60 min mouse [% remain.]” value was 25 % remain.

With `CN(C)CCNC(=O)[C@H]1CCC(=O)N(C)CC(=O)N2CCN(C(=O)Cc3ccc4ccccc4c3)C[C@@H]2COc2ccc(F)cc2C(=O)N1C` [Ex. 138, (12R,20aR)-N-[2-(dimethylamino)ethyl]-16-fluoro-8,13-dimethyl-2-[2-(2-naphthyl)acetyl]-6,9,14-trioxo-1,2,3,4,7,8,9,10,11,12,13,14,20,20a-tetradecahydro-6H-pyrazino[2,1-c][1,4,7,12]benzoxatriazacyclopentadecine-12-carboxamide], in the data set “in vitro [1]”, the Plasma Stability T½ [min] mouse is greater than 240 min and the “Plasma Stability 240 min mouse [% remain.]” value was 78 % remain. Moreover, in the data set “in vitro [2]”, the Plasma Stability T½ [min] hum was greater than 240 min and the “Plasma Stability 240 min hum [% remain.]” value is 89 % remain. In data set [3], the Metabolic Stability T½ [min] hum was greater than 60 min and the “Metabolic Stability 60 min hum [% remain.]” value is given as 62 % remain. Moreover, in data set [4], the Metabolic Stability T½ [min] mouse is greater than 60 min and the “Metabolic Stability 60 min mouse [% remain.]” value was 99 % remain.

As to `CC(=O)N[C@H]1CN(C)C(=O)c2cccc(c2)OC[C@@H]2C[C@H](NC(=O)CN(C)C)CN2C(=O)CN(C)C1=O` [Ex. 208, N-[(4S,6S,13S)-13-(acetylamino)-11,15-dimethyl-9,12,16-trioxo-2-oxa-8,11,15-triazatricyclo[15.3.1.0^4,8]henicosa-1(21),17,19-trien-6-yl]-2-(dimethylamino)acetamide], in the data set “in vitro [1]”, the Plasma Stability T½ [min] mouse was greater than 240 min and the “Plasma Stability 240 min mouse [% remain.]” value came to 90 % remain. Further, in “in vitro [2]”, the Plasma Stability T½ [min] hum was greater than 240 min and the “Plasma Stability 240 min hum [% remain.]” value is given as 98 % remain. In addition, in data set [3], the Metabolic Stability T½ [min] hum is greater than 60 min and the “Metabolic Stability 60 min hum [% remain.]” value is recorded as 84 % remain. For the same compound, in data set [4], the Metabolic Stability T½ [min] mouse was greater than 60 min and the “Metabolic Stability 60 min mouse [% remain.]” value was found to be 100 % remain.

`CN(C)CC(=O)N[C@@H]1C[C@H]2COc3cccc(c3)C(=O)N(C)C[C@H](NC(=O)Cc3ccc4ccccc4c3)C(=O)N(C)CC(=O)N2C1` [Ex. 230, 2-(dimethylamino)-N-[(4S,6R,13S)-11,15-dimethyl-13-{[2-(2-naphthyl)acetyl]amino}-9,12,16-trioxo-2-oxa-8,11,15-triazatricyclo[15.3.1.0^4,8]henicosa-1(21),17,19-trien-6-yl]acetamide]: in “in vitro [1]”, the Plasma Stability T½ [min] mouse was greater than 240 min and the “Plasma Stability 240 min mouse [% remain.]” value was 95 % remain. For the same compound, in the data set “in vitro [2]”, the Plasma Stability T½ [min] hum is greater than 240 min and the “Plasma Stability 240 min hum [% remain.]” value stood at 100 % remain. For the same compound, in data set [3], the Metabolic Stability T½ [min] hum is greater than 60 min and the “Metabolic Stability 60 min hum [% remain.]” value amounted to 61 % remain. In data set [4], the Metabolic Stability T½ [min] mouse was greater than 60 min and the “Metabolic Stability 60 min mouse [% remain.]” value was 90 % remain.

Consider `CN1CC(=O)N2C[C@H](NC(=O)CCc3ccncc3)C[C@H]2COc2ccc(cc2)C(=O)N(C)[C@H](C(=O)NCc2ccc3ccccc3c2)CCC1=O` [Ex. 260, (4S,6R,15S)-11,16-dimethyl-N-(2-naphthylmethyl)-9,12,17-trioxo-6-{[3-(4-pyridinyl)propanoyl]amino}-2-oxa-8,11,16-triazatricyclo[16.2.2.0^4,8]docosa-1(20),18,21-triene-15-carboxamide], for which, in “in vitro [1]”, the Plasma Stability T½ [min] mouse is greater than 240 min and the “Plasma Stability 240 min mouse [% remain.]” value was determined as 100 % remain. In the data set “in vitro [2]”, the Plasma Stability T½ [min] hum was greater than 240 min and the “Plasma Stability 240 min hum [% remain.]” value is on record as 100 % remain. For the same compound, in data set [3], the half-life at 10 µM amounted to 0.617 h and the “Metabolic Stability 60 min hum [% remain.]” value stood at 19 % remain. In data set [4], the Metabolic Stability T½ [min] mouse was greater than 60 min and the “Metabolic Stability 60 min mouse [% remain.]” value was 69 % remain.

Take `CCN(CC)[C@@H]1C[C@H]2COc3ccc(cc3)C(=O)N(C)[C@H](C(=O)NCc3ccc4ccccc4c3)CCC(=O)N(C)CC(=O)N2C1` [Ex. 262, (4S,6R,15S)-6-(diethylamino)-11,16-dimethyl-N-(2-naphthylmethyl)-9,12,17-trioxo-2-oxa-8,11,16-triazatricyclo[16.2.2.0^4,8]docosa-1(20),18,21-triene-15-carboxamide]: in the data set “in vitro [1]”, the Plasma Stability T½ [min] mouse is greater than 240 min and the “Plasma Stability 240 min mouse [% remain.]” value was found to be 93 % remain. In the data set “in vitro [2]”, the Plasma Stability T½ [min] hum is greater than 240 min and the “Plasma Stability 240 min hum [% remain.]” value was found to be 100 % remain. In data set [3], the half-life at 10 µM turned out to be 0.35 h and the “Metabolic Stability 60 min hum [% remain.]” value is given as 0 % remain. Moreover, in data set [4], the half-life at 10 µM came out at 0.383 h and the “Metabolic Stability 60 min mouse [% remain.]” value worked out at 4 % remain.

`CN1CC(=O)N2C[C@H](NC(=O)CN3CCCC3)C[C@H]2COc2ccc(cc2)C(=O)N(C)[C@H](C(=O)NCc2ccncc2)CCC1=O` [Ex. 266, (4S,6R,15S)-11,16-dimethyl-9,12,17-trioxo-N-(4-pyridinylmethyl)-6-{[2-(1-pyrrolidinyl)acetyl]amino}-2-oxa-8,11,16-triazatricyclo[16.2.2.0^4,8]docosa-1(20),18,21-triene-15-carboxamide]: in “in vitro [1]”, the Plasma Stability T½ [min] mouse was greater than 240 min and the “Plasma Stability 240 min mouse [% remain.]” value amounted to 74 % remain. Further, in the data set “in vitro [2]”, the Plasma Stability T½ [min] hum is greater than 240 min and the “Plasma Stability 240 min hum [% remain.]” value turned out to be 92 % remain. Also, in data set [3], the Metabolic Stability T½ [min] hum is greater than 60 min and the “Metabolic Stability 60 min hum [% remain.]” value came to 100 % remain. Besides, in data set [4], the Metabolic Stability T½ [min] mouse is greater than 60 min and the “Metabolic Stability 60 min mouse [% remain.]” value is 98 % remain.

Regarding `CN1CC(=O)N2C[C@H](NC(=O)CCC(=O)O)C[C@H]2COc2ccc(cc2)C(=O)N(C)[C@H](C(=O)NCc2ccncc2)CCC1=O` [Ex. 267, 4-{[(4S,6R,15S)-11,16-dimethyl-9,12,17-trioxo-15-{[(4-pyridinylmethyl)amino]carbonyl}-2-oxa-8,11,16-triazatricyclo[16.2.2.0^4,8]docosa-1(20),18,21-trien-6-yl]amino}-4-oxobutanoic acid], in the data set “in vitro [1]”, the Plasma Stability T½ [min] mouse was greater than 240 min and the “Plasma Stability 240 min mouse [% remain.]” value stood at 79 % remain. In “in vitro [2]”, the Plasma Stability T½ [min] hum was greater than 240 min and the “Plasma Stability 240 min hum [% remain.]” value is on record as 75 % remain. Moreover, in data set [3], the Metabolic Stability T½ [min] hum was greater than 60 min and the “Metabolic Stability 60 min hum [% remain.]” value came to 99 % remain. In data set [4], the Metabolic Stability T½ [min] mouse was greater than 60 min and the “Metabolic Stability 60 min mouse [% remain.]” value came out at 100 % remain.

Regarding `CC(C)CN1C[C@H]2C[C@H]1COc1ccc(F)cc1C(=O)N(C)CCC[C@H](NC(=O)Cc1ccccc1)C(=O)N2` [Ex. 407, N-[(1S,15S,18R)-7-fluoro-20-isobutyl-11-methyl-10,16-dioxo-3-oxa-11,17,20-triazatricyclo[16.2.1.0^4,9]henicosa-4,6,8-trien-15-yl]-2-phenylacetamide], in the data set “in vitro [1]”, the Plasma Stability T½ [min] mouse is greater than 240 min and the “Plasma Stability 240 min mouse [% remain.]” value came to 98 % remain. Further, in the data set “in vitro [2]”, the Plasma Stability T½ [min] hum was greater than 240 min and the “Plasma Stability 240 min hum [% remain.]” value was determined as 80 % remain. Moreover, in data set [3], the half-life at 10 µM was determined as 0.85 h and the “Metabolic Stability 60 min hum [% remain.]” value turned out to be 47 % remain. Further, in data set [4], the Metabolic Stability T½ [min] mouse was greater than 60 min and the “Metabolic Stability 60 min mouse [% remain.]” value is recorded as 84 % remain.

`CN1CCC[C@H](NC(=O)CC(C)(C)C)C(=O)N2C[C@@H](N)C[C@H]2COc2cccc(c2)C1=O` [Ex. 533, N-[(4S,6S,10S)-6-amino-14-methyl-9,15-dioxo-2-oxa-8,14-diazatricyclo[14.3.1.0^4,8]icosa-1(20),16,18-trien-10-yl]-3,3-dimethylbutanamide]: in “in vitro [1]”, the Plasma Stability T½ [min] mouse was greater than 240 min and the “Plasma Stability 240 min mouse [% remain.]” value amounted to 100 % remain. Also, in “in vitro [2]”, the Plasma Stability T½ [min] hum was greater than 240 min and the “Plasma Stability 240 min hum [% remain.]” value was 95 % remain. In addition, in data set [3], the Metabolic Stability T½ [min] hum is greater than 60 min and the “Metabolic Stability 60 min hum [% remain.]” value amounted to 59 % remain. Also, in data set [4], the Metabolic Stability T½ [min] mouse was greater than 60 min and the “Metabolic Stability 60 min mouse [% remain.]” value turned out to be 93 % remain.
